Reference: patent US6992095B2, “Stilbene compounds comprising an adamantyl group, compositions and methods thereof” (Galderma Research & Development, S.N.C., priority 1996, dated 2006)
Like-named read-outs stand apart in the source and are kept apart here.

Test system: mouse embryonic teratocarcinoma F9 cells
Test: mouse embryonic teratocarcinoma F9 cell differentiation test (antagonist activity)
Type: cell-based
Details: inhibition by 50% of agonist effect on secretion of plasminogen activator, CD 2043 at 10 nM, incubation for three days, read-out: Antagonist against CD 2043 (10 nM) F9 differentiation test IC50
Excerpt: The compounds according to the invention show activity in the test of differentiation of mouse embryonic teratocarcinoma cells (F9) (Cancer Research, 43, 5268 (1983)) and/or in the test of inhibition of ornithine decarboxylase after induction with TPA in mice (Cancer Research, 38, 793–801 (1978)). These tests show the activities of these compounds in the fields of cell differentiation and cell proliferation, respectively. In the test of cell (F9) differentiation, […] to retinoic acid receptors. […] Some of these compounds are thus also active in a test which is used to identify molecules which are RAR antagonists, as described in French patent application No. 95/07302 filed on 19 Jun. 1995 by the same Assignee as the present invention, which is incorporated by reference in its entirety herein. […] Thus, the response to a topical application, to the ear of a mammal, of an RAR-agonist molecule, which corresponds to an increase in the thickness of this ear, may be inhibited by the systemic or topical administration of an RAR-antagonist molecule. In addition, some of these compounds may provide synergism to the biological activity of products binding to the nuclear receptors.
The antagonist activity of the compounds of formula (I) was evaluated in the mouse embryonic teratocarcinoma F9 cell differentiation test, (Cancer Research, 43, 5268 (1983)).
The F9 cells were inoculated in 12-well clusters, the compounds were tested at from 10^−9 to 10^−5 M in the presence of all-trans-retinoic acid or of a synthetic agonist retinoid, 4-(5,6,7,8-tetrahydro-5,5,8,8-tetramethyl-2-naphthylaminomethyl)benzoic acid (CD 2043), at 10^−8 M. After incubation for three days, the morphological observations were carried out and the concentration of the test compound which inhibits the agonist effect on the secretion of the plasminogen activator by 50% (IC50) was determined.

In the case of COCCOCOc1ccc(/C(C)=C/c2ccc(C(=O)O)cn2)cc1C12CC3CC(CC(C3)C1)C2 [Example 10, 6-{2-[3-Adamant-1-yl-4-(2-methoxyethoxymethoxy)-phenyl]proven-(E)-yl}nicotinic acid], the IC50 is reported as 35 nM.

In the case of COCCOCOc1ccc(/C(C)=C/c2ccc(C(=O)O)cc2)cc1C12CC3CC(CC(C3)C1)C2 [Example 4, 4-[(E)-2-(3-(1-Adamantyl)-4-methoxyethoxymethoxy-phenyl)-1-propenyl]benzoic acid], the IC50 (Mus musculus, F9, 72 h) is reported as 9 nM.

Molecule COCCOCOc1ccc(/C=C/c2ccc(C(=O)O)cc2)cc1C12CC3CC(CC(C3)C1)C2 [Example 2, 4-[(E)-2-(3-(1-Adamantyl)-4-methoxyethoxymethoxy-phenyl)ethenyl]benzoic acid] has an IC50 (Mus musculus, F9, 72 h) of 310 nM.

COCCOCOc1ccc(/C(C)=C\c2ccc(C(=O)O)cc2)cc1C12CC3CC(CC(C3)C1)C2 [Example 5, 4-[(Z)-2-(3-(1-Adamantyl)-4-methoxyethoxymethoxy-phenyl)-1-prorenyl]benzoic acid] was tested, and the IC50 was 630 nM.

In the case of COCCOCOc1ccc(/C(C)=C/c2ccc(C(=O)O)nc2)cc1C12CC3CC(CC(C3)C1)C2 [Example 7, 5-{2-[3-Adamant-1-yl-4-(2-methoxyethoxymethoxy)-phenyl]proxpen-(E)-yl}pyridine-2-carboxylic acid], the IC50 is reported as 600 nM.
